Data on 80 compounds can be found in the Kinase Knowledgebase extract (Sharma et al. 2016).

In the assay the target is MAPK14 (human) (UniProt Q16539). Description: Inhibition of MAPK14 Kinase Activity.
Sequence of MAPK14 (human) (Q16539 whole entry, looked up): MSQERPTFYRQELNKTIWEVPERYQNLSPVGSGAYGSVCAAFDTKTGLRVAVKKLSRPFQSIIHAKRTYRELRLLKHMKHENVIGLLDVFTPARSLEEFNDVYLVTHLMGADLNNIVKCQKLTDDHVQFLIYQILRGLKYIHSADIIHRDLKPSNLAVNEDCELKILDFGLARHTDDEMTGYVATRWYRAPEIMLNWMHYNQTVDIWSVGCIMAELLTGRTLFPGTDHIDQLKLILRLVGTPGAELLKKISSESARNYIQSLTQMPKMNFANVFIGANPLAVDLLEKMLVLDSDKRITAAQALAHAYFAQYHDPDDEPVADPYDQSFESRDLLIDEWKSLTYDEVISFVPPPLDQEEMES

For `Cc1nc(-c2ccc(F)cc2)c(-c2nc(C(=O)Nc3c(C)cccc3C(C)(C)C)cs2)s1`, the IC50 (as a rule, the concentration needed to halve the response being measured) was at most 1000 nM. As for `CC(C)NC(=O)c1csc(-c2[nH]c(CN(C)C)nc2-c2ccc(F)cc2)n1`, the figure is at most 1000 nM; as for `CC(C)NC(=O)c1csc(-c2oc(CN3CCN(C(=O)c4ccc5ncccc5c4)CC3)nc2-c2ccc(F)cc2)n1`, at most 1000 nM. With `CC(C)NC(=O)c1csc(-c2oc(CNC(=O)c3ccc(F)cc3Cl)nc2-c2ccc(F)cc2)n1`, the IC50 was at most 1000 nM. `CC(C)NC(=O)c1csc(-c2c(-c3ccccc3)n[nH]c2C2CCN(C(=O)c3ccc(Cl)c([N+](=O)[O-])c3)CC2)n1` displayed an IC50 of at most 1000 nM.

On to `CC(C)NC(=O)c1csc(-c2oc(CN3CCN(C(=O)C4CCCCC4)CC3)nc2-c2ccc(F)cc2)n1`, for which the IC50 was at most 1000 nM. In turn, `CC(C)NC(=O)c1csc(-c2oc(CNC(=O)c3ccc([N+](=O)[O-])cc3Cl)nc2-c2ccc(F)cc2)n1` gave an IC50 of at most 1000 nM. Turning to `CCC(C)NC(=O)c1csc(-c2c(-c3ccc(F)cc3)n[nH]c2C2CCNCC2)n1` (stereo not given), the IC50 was at most 1000 nM. Take `O=C(NCc1cccnc1)c1csc(-c2c(-c3ccc(F)cc3)n[nH]c2C2CCNCC2)n1`: the IC50 is at most 1000 nM.

The compound `COCC(=O)N1CCC(c2[nH]nc(-c3ccc(F)cc3)c2-c2nc(C(=O)NC(C)C)cs2)CC1` returned an IC50 of at most 1000 nM. The value for `CC(=O)N1CCC(n2cnc(-c3ccc(F)cc3)c2-c2nc(C(=O)NC(C)C)cs2)CC1` was at most 1000 nM.

In turn, `CC(C)NC(=O)c1csc(-c2oc(CNC(=O)c3cccnc3Cl)nc2-c2ccc(F)cc2)n1` had an IC50 of at most 1000 nM. For the compound `CC(C)NC(=O)c1csc(-c2oc(CNC(=O)C=Cc3ccc(Cl)cc3)nc2-c2ccc(F)cc2)n1`, the IC50 is at most 1000 nM. In the case of `COc1ccc(NC(=O)c2csc(-c3sc(C)nc3-c3ccc(F)cc3)n2)cc1OC`, the IC50 is at most 1000 nM. In turn, `C#CCNC(=O)c1csc(-c2c(-c3ccc(F)cc3)n[nH]c2C)n1` came in with an IC50 of at most 1000 nM. In turn, `CC(C)NC(=O)c1csc(-c2oc(CNC(=O)C(C)c3ccc(O)cc3)nc2-c2ccc(F)cc2)n1` (stereo not given) registered an IC50 of at most 1000 nM. The value for `CC(C)NC(=O)c1csc(-c2c(-c3ccc(F)cc3)n[nH]c2C2CCN(C(=O)c3ccccn3)CC2)n1` was at most 1000 nM; that for `CC(C)NC(=O)c1csc(-c2c(-c3ccc(F)cc3)ncn2C2CCN(C(=O)CO)CC2)n1` was at most 1000 nM; that for `CC(C)NC(=O)n1ccc(-c2c(-c3ccc(F)cc3)noc2CN2CCOCC2)n1` was at most 1000 nM.

Compound `Cc1nc(-c2ccc(F)cc2)c(-c2nc(C(=O)Nc3ccc4c(c3)OCCO4)cs2)s1` yielded an IC50 of at most 1000 nM. `CC(=O)Nc1ccc(NC(=O)c2csc(-c3sc(C)nc3-c3ccc(F)cc3)n2)cc1` showed an IC50 of at most 1000 nM. The compound `C#CCNC(=O)c1csc(-c2sc(C)nc2-c2ccc(F)cc2)n1` returned an IC50 of at most 1000 nM. Regarding `CC(C)NC(=O)c1csc(-c2oc(CNC(=O)C3CN(C(=O)OC(C)(C)C)CCN3)nc2-c2ccc(F)cc2)n1` (stereo not given), the IC50 was at most 1000 nM. As for `Cc1ccc([N+](=O)[O-])c(C(=O)NCc2nc(-c3ccc(F)cc3)c(-c3nc(C(=O)NC(C)C)cs3)o2)c1`, the IC50 is at most 1000 nM.

Take `CC(C)NC(=O)c1csc(-c2oc(CNC(=O)Cc3c(F)cccc3F)nc2-c2ccc(F)cc2)n1`: the IC50 was at most 1000 nM.

`CC(C)NC(=O)c1csc(-c2oc(CNC(C)C(C)C)nc2C2=CC=C(F)OC2)n1` (stereo not given) registered an IC50 of at most 1000 nM.

For `CONC(=O)c1csc(-c2c(-c3ccc(F)cc3)n[nH]c2C2CCNCC2)n1`, the IC50 was at most 1000 nM.

On to `CC(C)NC(=O)c1csc(-c2c(-c3ccc(F)cc3)n[nH]c2C2CCN(C(=O)CCc3nc4ccccc4[nH]3)CC2)n1`, for which the IC50 was at most 1000 nM. Turning to `COc1cccc(CCNC(=O)c2csc(-c3sc(C)nc3-c3ccc(F)cc3)n2)c1`, the IC50 was at most 1000 nM.

In turn, `CC(C)NC(=O)c1csc(-c2oc(CN3CCN(C(=O)C(F)(F)F)CC3)nc2-c2ccc(F)cc2)n1` had an IC50 of at most 1000 nM. Compound `CC(C)NC(=O)c1csc(-c2oc(CN3CCN(C(=O)c4ccc(OC(C)C)cc4)CC3)nc2-c2ccc(F)cc2)n1` came in with an IC50 of at most 1000 nM. In turn, `Cc1nc(-c2ccc(F)cc2)c(-c2nc(C(=O)Nc3cccc(Cl)c3C)cs2)s1` registered an IC50 of at most 1000 nM. As for `Cc1[nH]nc(-c2ccc(F)cc2)c1-c1nc(C(=O)NCC2CC2)cs1`, the figure is at most 1000 nM; as for `Cc1nc(-c2ccc(F)cc2)c(-c2nc(C(=O)NCc3ccncc3)cs2)s1`, at most 1000 nM; as for `Cc1nc(-c2ccc(F)cc2)c(-c2nc(C(=O)NCc3ccc(F)c(F)c3)cs2)s1`, at most 1000 nM. Compound `CC(C)NC(=O)c1csc(-c2[nH]c(CN3CCOCC3)nc2-c2ccc(F)cc2)n1` returned an IC50 of at most 1000 nM. The compound `Cc1nc(-c2ccc(F)cc2)c(-c2nc(C(=O)NCCc3ccccc3)cs2)s1` came in with an IC50 of at most 1000 nM. With `O=C(NC1CCCC1)c1csc(-c2c(-c3ccc(F)cc3)ncn2C2CCNCC2)n1`, the IC50 was at most 1000 nM.

`CC(C)NC(=O)c1csc(-c2c(-c3ccc(F)cc3)n[nH]c2C2CCN(C(=O)c3cscn3)CC2)n1` displayed an IC50 of at most 1000 nM. The compound `CC(C)NC(=O)c1csc(-c2oc(CNC(=O)c3ccc(F)c([N+](=O)[O-])c3)nc2-c2ccc(F)cc2)n1` had an IC50 of at most 1000 nM.

Consider `Cc1nc(-c2ccc(F)cc2)c(-c2nc(C(=O)NCCNC(=O)OC(C)(C)C)cs2)s1`, for which the IC50 was at most 1000 nM. In turn, `CCCN(C)Cc1onc(-c2ccc(F)cc2)c1-c1nc(C(=O)NC(C)C)cs1` came in with an IC50 of at most 1000 nM. As to `COc1cccc(OC)c1C(=O)N1CCN(Cc2nc(-c3ccc(F)cc3)c(-c3nc(C(=O)NC(C)C)cs3)o2)CC1`, the IC50 is at most 1000 nM. `CC(C)NC(=O)c1csc(-c2c(-c3ccc(F)cc3)n[nH]c2C2CCN(C(=O)C(C)O)CC2)n1` (stereo not given): the IC50 is at most 1000 nM. As for `CC(C)NC(=O)c1csc(-c2oc(CN3CCN(C(=O)c4cccc5ccccc45)CC3)nc2-c2ccc(F)cc2)n1`, the figure is at most 1000 nM; as for `Cc1nc(-c2ccc(F)cc2)c(-c2nc(C(=O)NCCCn3ccnc3)cs2)s1`, at most 1000 nM; as for `Cc1nc(-c2ccc(F)cc2)c(-c2nc(C(=O)NCc3ccc(F)cc3F)cs2)s1`, at most 1000 nM. The compound `Cc1nc(-c2ccc(F)cc2)c(-c2nc(C(=O)NCCc3ccc(S(N)(=O)=O)cc3)cs2)s1` showed an IC50 of at most 1000 nM. For the compound `CC(C)NC(=O)c1csc(-c2oc(CN3CCN(C(=O)c4cccc(Cl)c4[N+](=O)[O-])CC3)nc2-c2ccc(F)cc2)n1`, the IC50 was at most 1000 nM.

In turn, `CC(C)NC(=O)c1csc(-c2c(-c3ccc(F)cc3)n[nH]c2C2CCN(C(=O)c3cncc(Br)c3)CC2)n1` showed an IC50 of at most 1000 nM.

As to `CC(C)NC(=O)c1csc(-c2oc(CNC(=O)c3cnc(O)c(Cl)c3)nc2-c2ccc(F)cc2)n1`, the IC50 was at most 1000 nM. As for `COc1ccc(CCNC(=O)c2csc(-c3sc(C)nc3-c3ccc(F)cc3)n2)cc1`, the IC50 is at most 1000 nM. For the compound `CC(C)NC(=O)c1csc(-c2c(-c3ccc(F)cc3)noc2C2CCN(C(=O)CO)CC2)n1`, the IC50 was at most 1000 nM.

`Cc1nc(-c2ccc(F)cc2)c(-c2nc(C(=O)Nc3ccc(N(C)C)cc3)cs2)s1`: the IC50 was at most 1000 nM.

With `CC(C)NC(=O)c1csc(-c2[nH]c(N)nc2-c2ccc(F)cc2)n1`, the IC50 was at most 1000 nM.

`CC(=O)NCC(=O)N1CCC(c2[nH]nc(-c3ccc(F)cc3)c2-c2nc(C(=O)NC(C)C)cs2)CC1` yielded an IC50 of at most 1000 nM. On to `Cc1nc(-c2ccc(F)cc2)c(-c2nc(C(=O)NCc3ccccc3Cl)cs2)s1`, for which the IC50 was at most 1000 nM. `CC(C)NC(=O)c1csc(-c2oc(CNC(=O)c3ccc(OCc4ccccc4)cc3)nc2-c2ccc(F)cc2)n1` returned an IC50 of at most 1000 nM.

Consider `Cc1nc(-c2ccc(F)cc2)c(-c2nc(C(=O)NC3CCN(Cc4ccccc4)C3)cs2)s1` (stereo not given), for which the IC50 was at most 1000 nM. In turn, `CC(=O)N1CCC(c2onc(-c3ccc(F)cc3)c2-c2nc(C(=O)NC(C)C)cs2)CC1` yielded an IC50 of at most 1000 nM.

With `CC(C)NC(=O)c1csc(-c2oc(CNC(=O)c3cccc(Cl)c3[N+](=O)[O-])nc2-c2ccc(F)cc2)n1`, the IC50 was at most 1000 nM. As for `Cc1nc(-c2ccc(F)cc2)c(-c2nc(C(=O)NCc3ccc(Cl)cc3Cl)cs2)s1`, the figure is at most 1000 nM. `Cc1nc(-c2ccc(F)cc2)c(-c2nc(C(=O)NCCC(C)C)cs2)s1` registered an IC50 of at most 1000 nM.

For `CC(C)NC(=O)c1csc(-c2oc(CN3CCN(C(=O)c4ccc(O)cc4O)CC3)nc2-c2ccc(F)cc2)n1`, the IC50 was at most 1000 nM. On to `CC(=O)NCC(=O)NCc1nc(-c2ccc(F)cc2)c(-c2nc(C(=O)NC(C)C)cs2)o1`, for which the IC50 is at most 1000 nM. Take `COc1ccncc1NC(=O)c1csc(-c2sc(C)nc2-c2ccc(F)cc2)n1`: the IC50 is at most 1000 nM. For the compound `CC(C)NC(=O)c1csc(-c2oc(CNC(=O)c3ccc(O)cc3O)nc2-c2ccc(F)cc2)n1`, the IC50 is at most 1000 nM. The value for `CC(C)NC(=O)c1csc(-c2oc(CN3CCN(C(=O)CC4Cc5ccccc5C4)CC3)nc2-c2ccc(F)cc2)n1` was at most 1000 nM; that for `CC(C)NC(=O)c1csc(-c2oc(CN3CCN(C(=O)Cc4ccc(C(F)(F)F)cc4)CC3)nc2-c2ccc(F)cc2)n1` was at most 1000 nM; that for `CC(C)NC(=O)c1csc(-c2oc(CN3CCN(C(=O)Cc4ccc(O)c(F)c4)CC3)nc2-c2ccc(F)cc2)n1` was at most 1000 nM.

Turning to `CC(C)NC(=O)c1csc(-c2oc(CN3CCN(C(=O)c4ccncc4)CC3)nc2-c2ccc(F)cc2)n1`, the IC50 was at most 1000 nM. The value for `CC(C)NC(=O)c1csc(-c2oc(CN3CCN(C(=O)C(C)(C)C)CC3)nc2-c2ccc(F)cc2)n1` was at most 1000 nM; that for `Cc1nc(-c2ccc(F)cc2)c(-c2nc(C(=O)NCc3ccccc3C)cs2)s1` was at most 1000 nM. The compound `COc1ccc(CNC(=O)c2csc(-c3c(-c4ccc(F)cc4)n[nH]c3C3CCNCC3)n2)cc1` yielded an IC50 of at most 1000 nM. On to `Cc1nc(-c2ccc(F)cc2)c(-c2nc(C(=O)NCCO)cs2)s1`, for which the IC50 was at most 1000 nM.

Compound `Cc1nc(-c2ccc(F)cc2)c(-c2nc(C(=O)NC(C)CO)cs2)s1` (stereo not given) gave an IC50 of at most 1000 nM. As for `CC(C)NC(=O)c1csc(-c2oc(CN3CCN(C(=O)c4cc(Cl)ccc4O)CC3)nc2-c2ccc(F)cc2)n1`, the figure is at most 1000 nM; as for `CC(C)NC(=O)c1csc(-c2c(-c3ccc(F)cc3)noc2CN(C)CCO)n1`, at most 1000 nM; as for `CC(C)NC(=O)c1csc(-c2oc(CNC(=O)c3ccc(Oc4cccc(O)c4)cc3)nc2-c2ccc(F)cc2)n1`, at most 1000 nM. As for `CC(C)NC(=O)c1csc(-c2oc(CNC(=O)c3c(F)cccc3F)nc2-c2ccc(F)cc2)n1`, the 50% inhibitory concentration (IC50) is at most 1000 nM.
